Test results: patent publication US20100178249A1, “IMAGING MEDIUM COMPRISING LACTATE AND HYPERPOLARISED 13C-PYRUVATE” (priority 2006, published 2010)

Tests used:
Type in all cases: cell-based
[1] = system: EL4 murine lymphoma cells; test: Cell death by acridine orange and propidium iodide staining / fluorescence microscopy; details: for morphological features of dying cells: cells treated with both the PARP inhibitor and etoposide, fluorescence microscopy
Description: (§1) EL4 murine lymphoma cells (10^8 cells) were treated with 15 μM etoposide (PCH Pharmachemie BV, Harleem), a compound which is known to induce cell death after 16 h exposure. A separate set of cells was treated for 16 hours with 15 μM etoposide plus 20 mM nicotinamide, a known PARP inhibitor. Cell death (apoptosis and necrosis) was confirmed by acridine orange and propidium iodide staining. The cells were washed 3 times with RPMI 1640 growth medium containing 10% FCS at 37° C. and to 2 ml of the etoposide- and etoposide/nicotinamide treated EL4 cell suspension 2 ml of the imaging medium according to Example 2 were added. The final cell suspension thus contained 30 mM hyperpolarised ^13C1-pyruvate and 37.5 mM lactate.

[2] = system: EL4 murine lymphoma cells; test: 13C-MR spectroscopy of hyperpolarised 13C-label flux between pyruvate and lactate in EL4 cells; details: cells treated with both the PARP inhibitor and etoposide
Description: as §1
^13C-signal intensities from ^13C-pyruvate and ^13C-lactate in etoposide-treated EL4 cell suspensions as described in 3.1 were followed over a time period of 240 seconds from the time of addition of the imaging medium. […]
^13C-signal intensities from ^13C-pyruvate and ^13C-lactate in etoposide-treated and etoposide/nicotinamide treated EL4 cell suspensions as described in 3.1 were followed over a time period of 240 seconds from the time of addition of the imaging medium. […] The data were fit to a two-site exchange model based on the modified Bloch equations, and the rate constants for the forward and reverse exchange ^13C-fluxes were determined. […]

[3] = system: EL-4 murine lymphoma cells; test: 31P-NMR measurements on acid-extracts of EL-4 cells induced to undergo cell death
Description: Loss of NAD(H) can be explained by DNA-damage induced activation of the enzyme poly-ADP-ribose polymerase (PARP), which polyadenylates various proteins and uses NAD^+ as a substrate. There was also an increase in the resonances from the glycolytic intermediate, fructose-1,6-bisphosphate (FBP), which can be explained by inhibition of the glycolytic enzyme, glyceraldehyde 3-phosphate dehydrogenase (GAPDH), through loss of its coenzyme NAD(H). Inhibition of PARP activity with a competitive inhibitor (20 mM nicotinamide) or 3-aminobenzamide (10 mM) inhibited the loss of NAD(H) and the increase in FBP concentration observed in apoptotic cells.

[4] = etoposide-treated cells compared to untreated control cells

Structure (SMILES)	morphological features of dying cells [1]	ability to transfer the hyperpolarised 13C-label between the pyruvate and lactate pools [2]	increase in FBP concentration observed in apoptotic cells ([3]; 3-aminobenzamide 10 mM)	loss of NAD(H) observed in apoptotic cells ([3]; 3-aminobenzamide 10 mM)	cell death (apoptosis and necrosis) ([1]; 15 μM etoposide, 16 h exposure)	intensity of the resonances from NAD(H) [3, 4]	resonances from fructose-1,6-bisphosphate (FBP) [3, 4]	increase in FBP concentration observed in apoptotic cells ([3]; 20 mM nicotinamide)	loss of NAD(H) observed in apoptotic cells ([3]; 20 mM nicotinamide)
NC(=O)c1cccc(N)c1 [3-aminobenzamide]	still exhibiting the common morphological features of dying cells	maintained	inhibited	inhibited	–	–	–	–	–
COc1cc([C@@H]2c3cc4c(cc3[C@@H](O[C@@H]3O[C@@H]5CO[C@@H](C)O[C@H]5[C@H](O)[C@H]3O)[C@H]3COC(=O)[C@H]23)OCO4)cc(OC)c1O [etoposide]	–	–	–	–	confirmed	decrease	increase	–	–
NC(=O)c1cccnc1 [nicotinamide]	still exhibiting the common morphological features of dying cells	maintained	–	–	–	–	–	inhibited	inhibited
